In the CheMixHub viscosity set:
“And” between values parts separate entries of the source, which are not always exact repeats. Identical values can stand only once.

Assay: xn = mol fraction of the nth substance listed

CCNc1ccccc1 + CCC(C)O
viscosity [mPa·s], 101 kPa
Conditions | 303.15 K | 308.15 K
x1 = 0.0785 | 2.682 | 2.105
x1 = 0.1325 | 2.642 | 2.089
x1 = 0.1965 | 2.596 | 2.071
x1 = 0.2564 | 2.55 | 2.052
x1 = 0.3214 | 2.498 | 2.028
x1 = 0.3965 | 2.433 | 1.995
x1 = 0.4562 | 2.378 | 1.964
x1 = 0.5124 | 2.322 | 1.932
x1 = 0.5895 | 2.24 | 1.882
x1 = 0.6547 | 2.164 | 1.835
x1 = 0.7325 | 2.07 | 1.773
x1 = 0.8025 | 1.983 | 1.714
x1 = 0.8745 | 1.894 | 1.653

ClCCl + CCCCn1cc[n+](C)c1.F[P-](F)(F)(F)(F)F
298.15 K, 101 kPa
Conditions | viscosity [mPa·s]
x1 = 0.2451 | 88.7
x1 = 0.6462 | 9.51

O=C[C@H](O)[C@@H](O)[C@@H](O)[C@H](O)CO + O
viscosity
Conditions | 298.15 K | 308.15 K
101 kPa, x1 = 0.0002 | 0.9056 mPa·s and 0.9056 mPa·s | –
101 kPa, x1 = 0.001 | 0.9592 mPa·s and 0.9592 mPa·s | –
101 kPa, x1 = 0.0018 | 0.9761 mPa·s and 0.9761 mPa·s | –
101 kPa, x1 = 0.002 | 0.9675 mPa·s and 0.9675 mPa·s | –
101 kPa, x1 = 0.003502 | 0.971 mPa·s | –
101 kPa, x1 = 0.00393 | 0.9552 mPa·s | 0.814 mPa·s
101 kPa, x1 = 0.00634 | 1.043 mPa·s | 0.8355 mPa·s
101 kPa, x1 = 0.01867 | 1.505 mPa·s | –
101.3 kPa, x1 = 0.02116 | 1.511 mPa·s | –

ClCCl + ClC(Cl)Cl
Conditions | viscosity [mPa·s]
303.15 K, 101.3 kPa, x1 = 0.4966 | 0.4521

CCNc1ccccc1 + Clc1ccccc1
viscosity [mPa·s], 101 kPa
Conditions | 303.15 K | 308.15 K
x1 = 0.0629 | 0.767 | 0.72
x1 = 0.1159 | 0.816 | 0.758
x1 = 0.1959 | 0.894 | 0.823
x1 = 0.2558 | 0.954 | 0.873
x1 = 0.3298 | 1.028 | 0.937
x1 = 0.3968 | 1.096 | 0.995
x1 = 0.4856 | 1.188 | 1.073
x1 = 0.5625 | 1.267 | 1.141
x1 = 0.6359 | 1.342 | 1.206
x1 = 0.7025 | 1.412 | 1.266
x1 = 0.7839 | 1.499 | 1.34
x1 = 0.8592 | 1.581 | 1.411
x1 = 0.9215 | 1.65 | 1.473

ClCCl + c1ccccc1
101.33 kPa
Conditions | viscosity [mPa·s]
293.15 K, x1 = 0.1454 | 0.591
293.15 K, x1 = 0.259 | 0.559
293.15 K, x1 = 0.3662 | 0.531
293.15 K, x1 = 0.4451 | 0.513
293.15 K, x1 = 0.5158 | 0.498
293.15 K, x1 = 0.5932 | 0.484
293.15 K, x1 = 0.6593 | 0.471
293.15 K, x1 = 0.714 | 0.463
293.15 K, x1 = 0.764 | 0.456
298.15 K, x1 = 0.2149 | 0.535
298.15 K, x1 = 0.2959 | 0.514
298.15 K, x1 = 0.3817 | 0.497
298.15 K, x1 = 0.4921 | 0.477
298.15 K, x1 = 0.5445 | 0.466
298.15 K, x1 = 0.5957 | 0.458
298.15 K, x1 = 0.6358 | 0.452
298.15 K, x1 = 0.6923 | 0.445
303.15 K, x1 = 0.1659 | 0.516
303.15 K, x1 = 0.2665 | 0.494
303.15 K, x1 = 0.3831 | 0.468
303.15 K, x1 = 0.4907 | 0.446
303.15 K, x1 = 0.5944 | 0.429
303.15 K, x1 = 0.6777 | 0.419
303.15 K, x1 = 0.7557 | 0.412
303.15 K, x1 = 0.8164 | 0.406

CCC(C)Br (configuration not stated) + CC(C)CO
viscosity [mPa·s], 101.3 kPa
Conditions | 298.15 K | 313.15 K
x1 = 0.0474 | 2.895 | 1.857
x1 = 0.102 | 2.431 | 1.596
x1 = 0.203 | 1.813 | 1.244
x1 = 0.3032 | 1.407 | 1.007
x1 = 0.4043 | 1.126 | 0.8382
x1 = 0.5066 | 0.9316 | 0.7176
x1 = 0.6053 | 0.7983 | 0.6315
x1 = 0.7043 | 0.7016 | 0.5696
x1 = 0.803 | 0.6311 | 0.5215
x1 = 0.8948 | 0.5854 | 0.4887
x1 = 0.9318 | 0.5716 | 0.4796

CC(=O)O + CCO
298.15 K, 101.33 kPa
Conditions | viscosity [mPa·s]
x2 = 0.0808 | 1.246
x2 = 0.2919 | 1.327
x2 = 0.3542 | 1.335
x2 = 0.5697 | 1.24
x2 = 0.6571 | 1.195
x2 = 0.75 | 1.15

CCNc1ccccc1 + CCC(=O)c1ccccc1
303.15 K, 100 kPa
Conditions | viscosity [mPa·s]
x1 = 0.0789 | 1.524
x1 = 0.1541 | 1.537
x1 = 0.2249 | 1.55
x1 = 0.3002 | 1.565
x1 = 0.3862 | 1.581
x1 = 0.4651 | 1.598
x1 = 0.5244 | 1.612
x1 = 0.6049 | 1.631
x1 = 0.6891 | 1.653
x1 = 0.7354 | 1.666
x1 = 0.8005 | 1.683
x1 = 0.8523 | 1.699
x1 = 0.9099 | 1.716

ClCCl + CCCCn1cc[n+](C)c1.F[B-](F)(F)F
Conditions | viscosity [mPa·s]
298.15 K, 101 kPa, x1 = 0.1 | 84.5

ClCCCl + CCCCCCCO
303.15 K, 101 kPa
Conditions | viscosity [mPa·s]
x2 = 0.1082 | 0.852
x2 = 0.1749 | 0.918
x2 = 0.3034 | 1.082
x2 = 0.456 | 1.415
x2 = 0.5496 | 1.752
x2 = 0.622 | 2.078
x2 = 0.7978 | 3.174
x2 = 0.8642 | 3.699
x2 = 0.9346 | 4.286

ClCCl + CCCCOCCO
298.15 K, 101.3 kPa
Conditions | viscosity [mPa·s]
x1 = 0.0185 | 2.77
x2 = 0.0035 | 0.408
x2 = 0.0112 | 0.413
x2 = 0.0303 | 0.43
x2 = 0.0521 | 0.451
x2 = 0.1008 | 0.503
x2 = 0.1533 | 0.578
x2 = 0.2175 | 0.671
x2 = 0.293 | 0.807
x2 = 0.362 | 0.943
x2 = 0.4346 | 1.11
x2 = 0.5707 | 1.482
x2 = 0.6642 | 1.753
x2 = 0.7875 | 2.148
x2 = 0.9049 | 2.525

ClCCl + Cc1ccc(C)cc1
101 kPa
Conditions | viscosity [mPa·s]
293.15 K, x1 = 0.2949 | 0.59
293.15 K, x1 = 0.4409 | 0.561
293.15 K, x1 = 0.5522 | 0.535
293.15 K, x1 = 0.609 | 0.522
293.15 K, x1 = 0.6936 | 0.504
293.15 K, x1 = 0.7459 | 0.492
293.15 K, x1 = 0.8125 | 0.476
293.15 K, x1 = 0.8558 | 0.468
298.15 K, x1 = 0.2347 | 0.568
298.15 K, x1 = 0.3846 | 0.541
298.15 K, x1 = 0.4518 | 0.529
298.15 K, x1 = 0.5662 | 0.504
298.15 K, x1 = 0.6375 | 0.488
298.15 K, x1 = 0.6972 | 0.476
298.15 K, x1 = 0.7342 | 0.467
298.15 K, x1 = 0.7892 | 0.457
298.15 K, x1 = 0.8376 | 0.451
303.15 K, x1 = 0.2286 | 0.539
303.15 K, x1 = 0.3627 | 0.515
303.15 K, x1 = 0.4362 | 0.502
303.15 K, x1 = 0.5371 | 0.483
303.15 K, x1 = 0.624 | 0.463
303.15 K, x1 = 0.6948 | 0.448
303.15 K, x1 = 0.7643 | 0.433
303.15 K, x1 = 0.818 | 0.427

CCNc1ccccc1 + CCCCOCCO
viscosity [mPa·s], 101.3 kPa
Conditions | x2 = 0.1017 | x2 = 0.2027 | x2 = 0.3026 | x2 = 0.398 | x2 = 0.5004 | x2 = 0.5947 | x2 = 0.701 | x2 = 0.7971 | x2 = 0.8933
298 K | 2.077 | 2.172 | 2.259 | 2.361 | 2.486 | 2.573 | 2.686 | 2.758 | 2.786
303 K | 1.774 | 1.855 | 1.929 | 2.039 | 2.14 | 2.214 | 2.313 | 2.38 | 2.404
308 K | 1.59 | 1.662 | 1.725 | 1.801 | 1.889 | 1.961 | 2.048 | 2.111 | 2.145
313 K | 1.43 | 1.498 | 1.537 | 1.615 | 1.693 | 1.746 | 1.824 | 1.883 | 1.91
318 K | 1.298 | 1.358 | 1.383 | 1.443 | 1.51 | 1.552 | 1.616 | 1.674 | 1.696
